Experimental findings from patent publication US11420958B2, “Aryl and heteroaryl substituted indole compounds” (BRISTOL-MYERS SQUIBB COMPANY, priority 2017, dated 2022) are described below.

Holding throughout (format): cell-based
The target in one assay is human TLR7 (Homo sapiens (Human), UniProt Q9NYK1). The assay is described as follows: TLR7 inhibition reporter assay (HEK-Blue, SEAP). As to conditions: HEK-Blue cells overexpressing human TLR7, gardiquimod 7.5 μM stimulation. The procedure, abridged:
(§1)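 Percent inhibition of agonist-induced SEAP secretion was scored against DMSO-only and reference-inhibitor controls. Stimulation lasted 22 h at 37 °C following 30 min compound pre-exposure (0.05 nM–50 μM); ligands were gardiquimod 7.5 μM, R848 15.9 μM and ODN2006 5 nM for TLR7, 8 and 9.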
For orientation: Reporter assays use an easily measured gene product as a stand-in for the process of interest.

A further assay concerns the target human TLR8 (Homo sapiens (Human), UniProt Q9NR97). The assay is described as follows: TLR8 inhibition reporter assay (HEK-Blue, SEAP). The conditions noted are these: HEK-Blue cells overexpressing human TLR8, R848 15.9 μM stimulation. The procedure, abridged:
as §1

The target of the next assay is human TLR9 (Homo sapiens (Human), UniProt Q9NR96). The assay can be described thus: TLR9 inhibition reporter assay (HEK-Blue, SEAP). As to conditions: HEK-Blue cells overexpressing human TLR9, ODN2006 5 nM stimulation. The procedure, abridged:
as §1

Sequence of human TLR7 (Q9NYK1 27-1049): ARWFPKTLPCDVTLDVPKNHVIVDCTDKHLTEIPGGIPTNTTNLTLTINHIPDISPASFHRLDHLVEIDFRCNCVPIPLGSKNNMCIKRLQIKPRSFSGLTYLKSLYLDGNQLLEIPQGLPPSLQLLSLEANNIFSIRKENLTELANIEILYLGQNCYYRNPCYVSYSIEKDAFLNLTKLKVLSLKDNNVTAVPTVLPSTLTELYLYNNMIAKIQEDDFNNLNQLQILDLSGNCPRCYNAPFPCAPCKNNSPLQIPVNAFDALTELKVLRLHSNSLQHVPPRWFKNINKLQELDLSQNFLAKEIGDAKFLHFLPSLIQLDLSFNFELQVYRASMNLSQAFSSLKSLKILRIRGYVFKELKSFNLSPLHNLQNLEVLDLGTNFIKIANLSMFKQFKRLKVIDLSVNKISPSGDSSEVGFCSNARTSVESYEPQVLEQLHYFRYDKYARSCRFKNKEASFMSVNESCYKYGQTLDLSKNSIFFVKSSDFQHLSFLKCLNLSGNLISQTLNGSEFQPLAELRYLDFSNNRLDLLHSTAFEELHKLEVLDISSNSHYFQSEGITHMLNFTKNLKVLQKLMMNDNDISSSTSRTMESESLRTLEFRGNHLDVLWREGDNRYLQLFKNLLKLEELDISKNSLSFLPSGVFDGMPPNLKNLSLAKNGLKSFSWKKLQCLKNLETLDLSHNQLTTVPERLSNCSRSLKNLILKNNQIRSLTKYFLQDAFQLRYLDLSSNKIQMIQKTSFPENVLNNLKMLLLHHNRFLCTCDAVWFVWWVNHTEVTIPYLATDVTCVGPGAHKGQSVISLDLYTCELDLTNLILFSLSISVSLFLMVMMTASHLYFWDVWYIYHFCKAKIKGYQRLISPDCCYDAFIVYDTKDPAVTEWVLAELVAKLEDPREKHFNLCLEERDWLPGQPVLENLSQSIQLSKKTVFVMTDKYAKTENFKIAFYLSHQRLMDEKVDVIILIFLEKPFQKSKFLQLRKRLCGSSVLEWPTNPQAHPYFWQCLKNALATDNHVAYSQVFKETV
Sequence of human TLR9 (Q9NR96 26-1032): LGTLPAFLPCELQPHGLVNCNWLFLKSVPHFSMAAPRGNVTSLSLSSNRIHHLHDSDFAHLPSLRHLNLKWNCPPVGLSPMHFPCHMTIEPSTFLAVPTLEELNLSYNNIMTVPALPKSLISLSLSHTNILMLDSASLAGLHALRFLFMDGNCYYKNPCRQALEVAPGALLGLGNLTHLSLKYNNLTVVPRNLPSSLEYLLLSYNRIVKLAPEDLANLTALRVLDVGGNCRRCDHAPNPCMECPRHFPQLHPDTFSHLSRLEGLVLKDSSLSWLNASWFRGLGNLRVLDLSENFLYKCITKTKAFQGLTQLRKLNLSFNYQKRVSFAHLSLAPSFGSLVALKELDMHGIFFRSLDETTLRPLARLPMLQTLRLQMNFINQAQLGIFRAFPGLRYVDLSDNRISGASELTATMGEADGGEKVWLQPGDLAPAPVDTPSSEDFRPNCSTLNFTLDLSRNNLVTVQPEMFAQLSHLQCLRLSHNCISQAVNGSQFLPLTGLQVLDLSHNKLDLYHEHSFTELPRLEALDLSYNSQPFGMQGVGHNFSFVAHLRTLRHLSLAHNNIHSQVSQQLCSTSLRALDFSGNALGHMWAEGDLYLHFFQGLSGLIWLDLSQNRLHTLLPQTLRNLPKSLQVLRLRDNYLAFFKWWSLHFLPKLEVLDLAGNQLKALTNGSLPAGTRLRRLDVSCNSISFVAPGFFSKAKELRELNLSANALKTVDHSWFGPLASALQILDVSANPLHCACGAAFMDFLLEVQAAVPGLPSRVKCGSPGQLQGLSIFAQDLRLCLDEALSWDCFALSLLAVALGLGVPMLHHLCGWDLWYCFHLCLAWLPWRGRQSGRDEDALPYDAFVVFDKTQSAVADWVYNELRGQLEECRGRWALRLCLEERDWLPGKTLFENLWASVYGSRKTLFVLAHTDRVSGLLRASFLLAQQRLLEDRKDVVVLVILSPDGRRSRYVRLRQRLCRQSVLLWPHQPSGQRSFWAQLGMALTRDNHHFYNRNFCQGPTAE
Sequence of human TLR8 (Q9NR97 27-1041): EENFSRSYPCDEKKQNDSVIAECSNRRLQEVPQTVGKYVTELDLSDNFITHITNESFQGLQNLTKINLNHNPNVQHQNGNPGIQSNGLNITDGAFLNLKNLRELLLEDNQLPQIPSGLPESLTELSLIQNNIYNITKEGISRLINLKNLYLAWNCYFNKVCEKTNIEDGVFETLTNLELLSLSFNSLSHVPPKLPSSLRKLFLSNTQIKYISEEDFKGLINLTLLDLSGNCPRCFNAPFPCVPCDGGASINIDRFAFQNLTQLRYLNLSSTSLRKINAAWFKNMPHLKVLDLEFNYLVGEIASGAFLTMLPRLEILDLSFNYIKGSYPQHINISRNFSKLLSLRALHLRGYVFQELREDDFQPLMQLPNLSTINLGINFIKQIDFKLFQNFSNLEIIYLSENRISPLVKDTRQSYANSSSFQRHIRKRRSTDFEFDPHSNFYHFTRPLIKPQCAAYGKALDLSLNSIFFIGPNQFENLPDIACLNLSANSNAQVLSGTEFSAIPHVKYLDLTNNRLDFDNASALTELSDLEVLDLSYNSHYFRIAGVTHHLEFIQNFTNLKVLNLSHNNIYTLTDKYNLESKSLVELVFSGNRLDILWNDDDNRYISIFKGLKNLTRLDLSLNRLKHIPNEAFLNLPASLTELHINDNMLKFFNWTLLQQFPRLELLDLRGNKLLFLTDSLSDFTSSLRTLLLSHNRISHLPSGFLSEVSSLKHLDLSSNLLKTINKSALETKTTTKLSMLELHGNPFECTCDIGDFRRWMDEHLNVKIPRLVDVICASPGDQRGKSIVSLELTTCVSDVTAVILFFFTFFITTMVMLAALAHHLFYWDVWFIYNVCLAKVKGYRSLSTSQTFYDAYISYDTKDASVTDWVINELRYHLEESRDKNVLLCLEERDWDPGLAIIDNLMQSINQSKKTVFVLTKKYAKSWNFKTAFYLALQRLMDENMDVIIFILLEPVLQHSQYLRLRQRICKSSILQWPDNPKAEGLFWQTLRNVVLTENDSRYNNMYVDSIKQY

Turning to `COc1ccc(-c2[nH]c3ccc(-c4ccc(N5CCN(C(C)C)CC5)nc4)cc3c2C(C)C)cc1OC` [Example 393, 2-(3,4-dimethoxyphenyl)-3-isopropyl-5-(6-(4-isopropylpiperazin-1-yl)pyridin-3-yl)-1H-indole], the IC50 – broadly, the point on the concentration scale where inhibition reaches its midpoint – at human TLR7 came to 60 nM; at human TLR8, 11 nM; against human TLR9, 666 nM.

Take `CC(C)c1c(-c2ccnc3[nH]ncc23)[nH]c2ccc(-c3ccc4[nH]c(=O)cc(O)c4c3)cc12` [Example 394, 4-hydroxy-6-(3-isopropyl-2-(1H-pyrazolo[3,4-b]pyridin-4-yl)-1H-indol-5-yl)quinolin-2(1H)-one]: the IC50 on human TLR7 is 919 nM; at human TLR8, 218 nM; at human TLR9 it was greater than 50000 nM.

Consider `CC(C)c1c(-c2ccnc3[nH]ncc23)[nH]c2ccc(-c3ccc4c(cnn4C)c3)cc12` [Example 395, 4-(3-isopropyl-5-(1-methyl-1H-indazol-5-yl)-1H-indol-2-yl)-1H-pyrazolo[3,4-b]pyridine], for which the IC50 came out at 486 nM against human TLR7, 111 nM against human TLR8 and 44000 nM against human TLR9.

For the compound `COc1ccc(-c2[nH]c3ccc(-c4cccc(-c5cccc(CN6CCOCC6)c5)c4)cc3c2C(C)C)cc1OC` [Example 396, 4-((3′-(2-(3,4-dimethoxyphenyl)-3-isopropyl-1H-indol-5-yl)-[1,1′-biphenyl]-3-yl)methyl)morpholine], the half-maximal inhibitory concentration (IC50) at human TLR7 was 2310 nM; against human TLR8, 519 nM; against human TLR9 it was greater than 50000 nM.

Regarding `COc1ccc(-c2[nH]c3ccc(-c4cccc(-c5cccc(CN(C)C)c5)c4)cc3c2C(C)C)cc1OC` [Example 397, 1-(3′-(2-(3,4-dimethoxyphenyl)-3-isopropyl-1H-indol-5-yl)-[1,1′-biphenyl]-3-yl)-N,N-dimethylmethanamine], the IC50 against human TLR7 came out at 3300 nM; on human TLR8, 101 nM; at human TLR9 it was 4120 nM.

In the case of `COc1ccc(-c2[nH]c3ccc(-c4ccc(CCCN5CCOCC5)cc4)cc3c2C(C)C)cc1OC` [Example 398, 4-(3-(4-(2-(3,4-dimethoxyphenyl)-3-isopropyl-1H-indol-5-yl)phenyl)propyl)morpholine], the IC50 at human TLR7 was 559 nM; on human TLR8, 2120 nM; at human TLR9, 2550 nM.

For `CCc1c(-c2ccc(OC)c(OC)c2)[nH]c2ccc(-c3ccc(N4CCNCC4)cc3)cc12` [Example 399, 2-(3,4-dimethoxyphenyl)-3-ethyl-5-(4-(piperazin-1-yl)phenyl)-1H-indole], the IC50 stood at 947 nM against human TLR7, 28 nM at human TLR8 and 721 nM on human TLR9.

In the case of `COc1ccc(-c2[nH]c3ccc(-c4ccc(NCCCN(C)C)cc4)cc3c2C(C)C)cc1OC` [Example 400, N1-(4-(2-(3,4-dimethoxyphenyl)-3-isopropyl-1H-indol-5-yl)phenyl)-N3,N3-dimethylpropane-1,3-diamine], the figures for the half-maximal inhibitory concentration (IC50) against human TLR7, against human TLR8 and at human TLR9 were 165 nM, 35 nM and 2660 nM, respectively.

Take `COc1ccc(-c2[nH]c3ccc(-c4ccc(NCCN5CCOCC5)cc4)cc3c2C(C)C)cc1OC` [Example 401, 4-(2-(3,4-dimethoxyphenyl)-3-isopropyl-1H-indol-5-yl)-N-(2-morpholinoethyl)aniline]: the IC50 came out at 541 nM against human TLR7, 77 nM at human TLR8 and 43300 nM at human TLR9.

Turning to `COc1ccc(-c2[nH]c3ccc(-c4ccc(NC5CCCNC5)cc4)cc3c2C(C)C)cc1OC` (stereo not drawn) [Example 402, N-(4-(2-(3,4-dimethoxyphenyl)-3-isopropyl-1H-indol-5-yl)phenyl)piperidin-3-amine], the half-maximal inhibitory concentration (IC50) on human TLR7 was 200 nM; against human TLR8, 21 nM; against human TLR9 it was 2320 nM.

Regarding `COc1ccc(-c2[nH]c3ccc(-c4ccc(N5CCN(C6CCCC6)CC5)cc4)cc3c2C(C)C)cc1OC` [Example 403, 5-(4-(4-cyclopentylpiperazin-1-yl)phenyl)-2-(3,4-dimethoxyphenyl)-3-isopropyl-1H-indole], the results for the half-maximal inhibitory concentration (IC50) on human TLR7, at human TLR8 and at human TLR9 were 570 nM, 312 nM and greater than 50000 nM, respectively.

With `CNCCNc1ccc(-c2ccc3[nH]c(-c4ccc(OC)c(OC)c4)c(C(C)C)c3c2)cc1` [Example 404, N1-(4-(2-(3,4-dimethoxyphenyl)-3-isopropyl-1H-indol-5-yl)phenyl)-N2-methylethane-1,2-diamine], the IC50 was 246 nM at human TLR7, 38 nM on human TLR8 and 9680 nM on human TLR9.

On to `COc1ccc(-c2[nH]c3ccc(-c4ccc(N5CCC(c6ccncc6)CC5)cc4)cc3c2C(C)C)cc1OC` [Example 405, 2-(3,4-dimethoxyphenyl)-3-isopropyl-5-(4-(4-(pyridin-4-yl)piperidin-1-yl)phenyl)-1H-indole], for which the results for the IC50 against human TLR7, at human TLR8 and against human TLR9 were 1560 nM, 464 nM and greater than 50000 nM, respectively.

Turning to `COc1ccc(-c2[nH]c3ccc(-c4ccc(-c5cccnc5)cc4)cc3c2C(C)C)cc1OC` [Example 406, 2-(3,4-dimethoxyphenyl)-3-isopropyl-5-(4-(pyridin-3-yl)phenyl)-1H-indole], the values for the IC50 against human TLR7, on human TLR8 and at human TLR9 were 2610 nM, 2220 nM and greater than 50000 nM, respectively.

On to `COc1ccc(-c2[nH]c3ccc(-c4ccc(C5=CCNCC5)cc4)cc3c2C)cc1OC` [Example 408, 2-(3,4-dimethoxyphenyl)-3-methyl-5-(4-(1,2,3,6-tetrahydropyridin-4-yl)phenyl)-1H-indole], for which the IC50 at human TLR7 was 8620 nM; against human TLR8 it was greater than 50000 nM; against human TLR9, 729 nM.

`COc1ccc(-c2[nH]c3ccc(-c4cccc(-c5ccc6nonc6c5)c4)cc3c2C(C)C)cc1OC` [Example 409, 5-(3-(2-(3,4-dimethoxyphenyl)-3-isopropyl-1H-indol-5-yl)phenyl)benzo[c][1,2,5]oxadiazole]: the IC50 on human TLR7 is 1280 nM; against human TLR8 it was 429 nM; at human TLR9, greater than 50000 nM.

Consider `COc1ccc(-c2[nH]c3ccc(-c4ccc(OC5CCNCC5)cc4)cc3c2C(C)C)cc1OC` [Example 410, 2-(3,4-dimethoxyphenyl)-3-isopropyl-5-(4-(piperidin-4-yloxy)phenyl)-1H-indole], for which the half-inhibitory concentration (IC50) was found to be 274 nM against human TLR7, 55 nM against human TLR8 and 4910 nM at human TLR9.

As to `COc1ccc(-c2[nH]c3ccc(-c4cccc(N5CCNCC5)c4)cc3c2C(C)C)cc1OC` [Example 411, 2-(3,4-dimethoxyphenyl)-3-isopropyl-5-(3-(piperazin-1-yl)phenyl)-1H-indole], the IC50 worked out at 604 nM at human TLR7, 96 nM on human TLR8 and 8430 nM against human TLR9.

Take `COc1ccc(-c2[nH]c3ccc(-c4ccc(OCCN5CCCC5)cc4)cc3c2C(C)C)cc1OC` [Example 412, 2-(3,4-dimethoxyphenyl)-3-isopropyl-5-(4-(2-(pyrrolidin-1-yl)ethoxy)phenyl)-1H-indole]: the figures for the 50% inhibitory concentration (IC50) on human TLR7, at human TLR8 and against human TLR9 were 34 nM, 26 nM and greater than 50000 nM, respectively.

Regarding `COc1ccc(-c2[nH]c3ccc(-c4ccc(CN5CCOCC5)cc4)cc3c2C(C)C)cc1OC` [Example 413, 4-(4-(2-(3,4-dimethoxyphenyl)-3-isopropyl-1H-indol-5-yl)benzyl)morpholine], the half-inhibitory concentration (IC50) against human TLR7 was 440 nM; against human TLR8, 38 nM; at human TLR9, greater than 50000 nM.

Turning to `CC(C)c1c(-c2ccnc3[nH]ncc23)[nH]c2ccc(-c3cccc(CO)c3)cc12` [Example 414, (3-(3-isopropyl-2-(1H-pyrazolo[3,4-b]pyridin-4-yl)-1H-indol-5-yl)phenyl)methanol], the half-inhibitory concentration (IC50) at human TLR7 was 771 nM; at human TLR8, 63 nM; against human TLR9, greater than 50000 nM.

In the case of `CC(C)c1c(-c2ccnc3[nH]ncc23)[nH]c2ccc(-c3cccc(S(N)(=O)=O)c3)cc12` [Example 415, 3-(3-isopropyl-2-(1H-pyrazolo[3,4-b]pyridin-4-yl)-1H-indol-5-yl)benzenesulfonamide], the IC50 against human TLR7 is 820 nM; against human TLR8, 56 nM; at human TLR9, greater than 50000 nM.

Turning to `COc1ccc(-c2[nH]c3ccc(-c4ccc(N5CCOCC5)nc4)cc3c2C(C)C)cc1OC` [Example 416, 4-(5-(2-(3,4-dimethoxyphenyl)-3-isopropyl-1H-indol-5-yl)pyridin-2-yl)morpholine], the IC50 on human TLR7 was 2290 nM; at human TLR8, 71 nM; at human TLR9, greater than 50000 nM.

In the case of `COc1ccc(-c2[nH]c3ccc(-c4ccc(N5CCNCC5)nc4)cc3c2C(C)C)cc1OC` [Example 417, 2-(3,4-dimethoxyphenyl)-3-isopropyl-5-(6-(piperazin-1-yl)pyridin-3-yl)-1H-indole], the IC50 at human TLR7 came out at 49 nM; at human TLR8, 6.8 nM; on human TLR9, 1220 nM.

`COc1ccc(-c2[nH]c3ccc(-c4cnc(N5CCN(CC(C)C)CC5)cc4C)cc3c2C(C)C)cc1OC` [Example 418, 2-(3,4-dimethoxyphenyl)-5-(6-(4-isobutylpiperazin-1-yl)-4-methylpyridin-3-yl)-3-isopropyl-1H-indole]: the IC50 on human TLR7 came to 879 nM; on human TLR8 it was 41 nM; on human TLR9, 3540 nM.

As for `COc1ccc(-c2[nH]c3ccc(-c4cnc(N5CCNCC5)cc4C)cc3c2C(C)C)cc1OC` [Example 419, 2-(3,4-dimethoxyphenyl)-3-isopropyl-5-(4-methyl-6-(piperazin-1-yl)pyridin-3-yl)-1H-indole], the values for the concentration for half-maximal inhibition (IC50) on human TLR7, on human TLR8 and against human TLR9 were 50 nM, 14 nM and 1390 nM, respectively.

For `COc1ccc(-c2[nH]c3ccc(-c4cnc(N5CCN(C(C)C)CC5)cc4C)cc3c2C(C)C)cc1OC` [Example 420, 2-(3,4-dimethoxyphenyl)-3-isopropyl-5-(6-(4-isopropylpiperazin-1-yl)-4-methylpyridin-3-yl)-1H-indole], the concentration for half-maximal inhibition (IC50) at human TLR7 came to 334 nM; against human TLR8, 4.7 nM; against human TLR9, 693 nM.
